The source of these data is US8048869B2, “Pharmaceutical composition for use in hormone replacement therapy” (Pantarhei Bioscience B.V., priority 2001, dated 2011).

In data set [1] the test system is estrogen receptors in the human endometrium. Particulars: cited from earlier work.
The conditions of data set [2]: tritium labeled, intravenously, two adult women; cited from earlier work.
Data set [3] concerns the target T1, rat uterine cytosol estrogen receptor (Rattus norvegicus, UniProt P06211).
T1 construct: host or cells: rat uterus (cytosol and nuclear fractions), Martucci et al. 1976
T1 sequence (P06211 1-600): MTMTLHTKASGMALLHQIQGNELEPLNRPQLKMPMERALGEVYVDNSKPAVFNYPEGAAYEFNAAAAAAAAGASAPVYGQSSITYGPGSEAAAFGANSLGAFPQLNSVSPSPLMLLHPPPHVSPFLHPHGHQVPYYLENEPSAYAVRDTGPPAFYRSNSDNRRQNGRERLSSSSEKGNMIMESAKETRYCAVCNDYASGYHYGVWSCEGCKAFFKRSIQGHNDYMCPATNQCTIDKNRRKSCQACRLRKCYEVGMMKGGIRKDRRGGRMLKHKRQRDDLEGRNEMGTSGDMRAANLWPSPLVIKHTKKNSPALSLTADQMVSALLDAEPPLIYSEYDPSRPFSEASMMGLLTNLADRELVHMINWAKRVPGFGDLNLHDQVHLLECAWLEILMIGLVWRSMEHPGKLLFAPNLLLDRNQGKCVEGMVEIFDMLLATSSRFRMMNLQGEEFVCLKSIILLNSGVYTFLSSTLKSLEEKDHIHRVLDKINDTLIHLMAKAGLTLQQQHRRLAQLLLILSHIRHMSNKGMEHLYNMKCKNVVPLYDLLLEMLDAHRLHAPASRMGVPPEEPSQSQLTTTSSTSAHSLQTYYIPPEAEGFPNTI
Particulars: cited from earlier work.

Data set [4] has as its target T2, human sex Hormone Binding Globulin (SHBG) (Homo sapiens, UniProt P04278).
T2 construct: Human SHBG was purified from transgenic mouse serum, as described previously; from tissue; host or cells: serum of mice transgenic for human SHBG
T2 sequence (P04278 30-402): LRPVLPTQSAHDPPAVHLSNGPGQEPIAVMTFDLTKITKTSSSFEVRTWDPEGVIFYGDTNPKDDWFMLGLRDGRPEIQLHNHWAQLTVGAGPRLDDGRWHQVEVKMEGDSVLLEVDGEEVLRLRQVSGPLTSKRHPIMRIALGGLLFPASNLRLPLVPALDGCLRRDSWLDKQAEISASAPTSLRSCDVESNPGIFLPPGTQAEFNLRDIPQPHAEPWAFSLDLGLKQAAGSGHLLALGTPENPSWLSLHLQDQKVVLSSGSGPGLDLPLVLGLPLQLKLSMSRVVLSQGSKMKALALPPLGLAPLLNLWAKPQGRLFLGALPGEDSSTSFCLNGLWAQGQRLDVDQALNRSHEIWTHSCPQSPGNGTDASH
Briefly: Competitive steroid-binding assay, SHBG. Particulars: [3H]DHT or [3H]estradiol as labeled ligands (FIG. 6). The procedure:
Human SHBG was treated for 30 min at room temperature with a dextran-coated charcoal (DCC) suspension in phosphate buffered saline (PBS) to remove any steroid ligand. After centrifugation (2,000×g for 10 min) to sediment the DCC, the supernatant containing the human SHBG was diluted in PBS to a concentration of 1 nM based on its steroid binding capacity.
After incubation for 1 h at room temperature the. reaction mixtures were placed in an ice bath for a further 15 muin. […] The average amounts of [^3H]labeled ligands bound to SHBG at each concentration of competitor (B) were expressed as a percentage of the average amounts of [^3H]labeled ligands bound to SHBG in the absence of competitor (B0), and were plotted against the concentration of competitor in each assay tube.

The subject of a further data set is OVX-rats. Briefly: pQCT densitometry of proximal tibiae, ovariectomized aged rat osteoporosis model. Also on record: anti-resorptive activity compared with positive control EE: dose or concentration left out as unconfirmed. The class given is in vivo. The note with it: po, 4 weeks; for Mean Total Bone Mineral Area / Mean Total Bone Mineral Content / Mean Total Bone Mineral Density / Mean Trabecular Bone Mineral Area / Mean Trabecular Bone Mineral Content / Mean Trabecular Bone Mineral Density: proximal tibiae. The procedure: The ovariectomized aged rat was used as a model for the human disease osteoporosis. This is an established animal model, recommended by the United States Food and Drug Administration (FDA), to evaluate and assess potential agents for osteoporosis prevention and therapy. The anti-resorptive efficacy of estetrol (E4) was tested by ex vivo measuring total and trabecular bone mineral density and bone strength after 4 weeks of treatment at necropsy. 17α-ethinyl-estradiol (EE) and vehicle (1% ethanol/arachidis oil) served as controls in this bioassay.
Three months old female Sprague-Dawley rats were either sham-operated (Sham) or ovariectomized (OVX) one day prior to commencement of the dosing study. Animals were anesthetized using a ketamine/xylazine anesthetic mixture and underwent a bilateral ovariectomy or were sham-treated. A section of hair on the dorsal surface was shaved and an incision made overlying the lumbar region of the spine. The skin was separated from the underlying fascia so that a second incision could be made through the abdominal musculature approximately caudal to the kidneys. The ovaries were then exteriorized and removed and the musculature was closed with a single suture. The skin incision was closed using surgical staples.
Ten animals per treatment group were orally dosed once per day for four consecutive weeks. […] Vehicle control was daily administered to one group of OVX-animals and sham-operated rats. After treatment, anesthetized rats were subjected to cardiac puncture and asphyxiated by CO2 inhalation. Tibiae and femura were removed, cleaned of soft-tissue and fixed and stored in 70% ethanol/saline at 4° C. (tibia) or saline at 4° C. (femura) until fuirther analysis.
Ex vivo peripheral Quantitative Computed Tomography (pQCT) was performed on the excised left tibiae using a Stratec XCT-RM and associated software (Stratec Medizintechnik GmbH, Pforzheim; Germany, software version 5.40). The scans were performed at 12% of the total length from the proximal end of the tibiae. The positions were verified using scout views and one 0.5-mm slice perpendicular to the long axis of the tibial shaft was acquired from each site. The scans were analyzed using a threshold for delineation of the external boundary. The total and trabecular bone mineral content, area and density at each site were determined. Furthermore, pQCT data for mean total bone mineral density are depicted in FIG. 1.

In a further data set the test system is nonpregnant ewes. The note with it: intravenously administered; cited from earlier work.
The target of data set [5] is T3, rat uterine nuclear estrogen receptor (Rattus norvegicus, UniProt P06211).
T3 construct: host or cells: rat uterus (cytosol and nuclear fractions), Martucci et al. 1976
T3 sequence (P06211 1-600): T1 sequence (P06211 1-600)
Particulars: cited from earlier work.

Each structure is given as a SMILES string.

`C[C@]12CC[C@@H]3c4ccc(O)cc4CC[C@H]3[C@@H]1[C@@H](O)[C@@H](O)[C@@H]2O` [E4, 1,3,5 (10)-estratrien-3,15α,16α,17β-tetrol]: the “relative binding constant to the estrogen receptor compared to 17β-estradiol (100%)” value in data set [1] (Tseng et al. 1976) is on record as 6.25%. Further, the “Relative binding to estrogen receptors, relative to 17β-estradiol” value in data set [1] (Tseng et al. 1978) is listed as 1.5%. In data set [2], the excretion and metabolism entry was “rapidly and completely excreted in urine as the glucosiduronate”. The “relative binding affinity, 17β-estradiol = 100%” value in data set [3] was 0.5%. Moreover, the “relative binding affinity for human SHBG” value in data set [4] is given as “does not bind at all”. Also, in the data set on OVX-rats (0.1 mg/kg/day), the “Mean Total Bone Mineral Area” value stood at 14.41 mm^2, the “Mean Total Bone Mineral Content” value came to 8.46 mg/mm, the “Mean Total Bone Mineral Density” value is 588.62 mg/mL and the “Mean Trabecular Bone Mineral Area” value was 6.48 mm^2. Moreover, in the data set with OVX-rats (0.1 mg/kg/day), the “Mean Trabecular Bone Mineral Content” value was 0.96 mg/mm and the “Mean Trabecular Bone Mineral Density” value was determined as 145.46 mg/mL. Also, in the data set with OVX-rats (0.5 mg/kg/day), the “Mean Total Bone Mineral Area” value is 14.80 mm^2, the “Mean Total Bone Mineral Content” value was found to be 9.74 mg/mm, the “Mean Total Bone Mineral Density” value worked out at 660.57 mg/mL and the “Mean Trabecular Bone Mineral Area” value is 6.65 mm^2. Further, in the data set on OVX-rats (0.5 mg/kg/day), the “Mean Trabecular Bone Mineral Content” value came out at 1.60 mg/mm and the “Mean Trabecular Bone Mineral Density” value came to 243.31 mg/mL. Besides, in the data set with OVX-rats (highest dose), the “anti-resorptive activity compared with positive control EE” value is recorded as “equivalent to the effect seen with the positive control EE”. Moreover, in the data set with nonpregnant ewes, the “potency in uterine vasodilation relative to estriol and 17β-estradiol” value is reported as 15 to 30 times less potent. For the same compound, the “relative binding affinity, 17β-estradiol = 100%” value in data set [5] is listed as 0.3%.
